Results on 26 compounds are retold here after the supplement of paper PMC12137928.

SMILES strings stand for the structures. Counter-ions that a name gives are not always drawn.

This experiment deals with HCT116. The settings on record: 72 h. Summed up:
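HCT116 cells went into 1536-well plates at 250 per well. CellTiter-Glo luminescence was expressed relative to vehicle (0%) and positive control (-100%) and then pattern-corrected. Both IC50 and maximal efficacy were taken from four-parameter Hill fits.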

In the case of `CC(=O)/N=c1/sc(S(N)(=O)=O)nn1C` [Methazolamide], the IC50 cell viability by setting is: (ICRF193 0 nM) greater than 45.8 µM; (ICRF193 200 nM) greater than 45.8 µM.
Turning to `N=C(N)Nc1ccc(C(=O)Oc2ccc3cc(C(=N)N)ccc3c2)cc1` [Nafamostat mesilate], the IC50 cell viability is, setting by setting: (ICRF193 0 nM) greater than 45.8 µM; (ICRF193 200 nM) greater than 45.8 µM.
As for `OCc1cc([C@@H](O)CNCCCCCCOCCOCc2c(Cl)cccc2Cl)ccc1O`, the IC50 cell viability by setting is: (ICRF193 0 nM) greater than 45.8 µM; (ICRF193 200 nM) greater than 45.8 µM.
As to `C=C(C)CNc1ccc(C(C)C(=O)O)cc1` (racemic) [rac Alminoprofen], the IC50 cell viability runs as follows: (ICRF193 0 nM) greater than 45.8 µM; (ICRF193 200 nM) greater than 45.8 µM.
`CCCOc1cc(N)ccc1C(=O)OCCN(CC)CC` [PROPOXYCAINE HYDROCHLORIDE] displayed an IC50 cell viability (ICRF193 0 nM) greater than 45.8 µM and an IC50 cell viability (ICRF193 200 nM) greater than 45.8 µM.
On to `CC(C)=CCC/C(C)=C/C=C/C(C)=C/C=C/C(C)=C/C=C/C=C(C)/C=C/C=C(C)/C=C/C=C(\C)CCC=C(C)C` [Lycopene], for which the IC50 cell viability is greater than 45.8 µM (ICRF193 0 nM) and greater than 45.8 µM (ICRF193 200 nM).
Take `CCN(CC)CC(=O)Nc1c(C)cccc1C(=O)OC` [Tolycaine]: the IC50 cell viability reads like this: (ICRF193 0 nM) greater than 45.8 µM; (ICRF193 200 nM) greater than 45.8 µM.
In turn, `OC(CCCN1CCCCC1)(c1ccccc1)c1ccccc1` [Diphenidol] came in with an IC50 cell viability (ICRF193 0 nM) greater than 45.8 µM and an IC50 cell viability (ICRF193 200 nM) greater than 45.8 µM.
For the compound `CC(/C=C/C=C(\C)C(=O)O[C@@H]1O[C@H](CO[C@@H]2O[C@H](CO)[C@@H](O)[C@H](O)[C@H]2O)[C@@H](O)[C@H](O)[C@H]1O)=C\C=C\C=C(C)\C=C\C=C(/C)C(=O)O[C@@H]1O[C@H](CO[C@@H]2O[C@H](CO)[C@@H](O)[C@H](O)[C@H]2O)[C@@H](O)[C@H](O)[C@H]1O` [Crocin?], the IC50 cell viability is greater than 45.8 µM (ICRF193 0 nM) and greater than 45.8 µM (ICRF193 200 nM).
Consider `CC(C)(C)C(O)/C=C/c1ccc2c(c1)OCO2` (configuration not stated) [Stiripentol], for which the IC50 cell viability runs as follows: (ICRF193 0 nM) greater than 45.8 µM; (ICRF193 200 nM) greater than 45.8 µM.
Turning to `CC(C)=CCC/C(C)=C/CC/C(C)=C/CC/C(C)=C/CC/C(C)=C/CC1=C(C)C(=O)c2ccccc2C1=O` [Menaquinone], the IC50 cell viability by setting is: (ICRF193 0 nM) greater than 45.8 µM; (ICRF193 200 nM) greater than 45.8 µM.
For the compound `NS(=O)(=O)c1cc(C(=O)O)cc(N2CCCC2)c1Oc1ccccc1` [Piretanide], the IC50 cell viability is, setting by setting: (ICRF193 0 nM) greater than 45.8 µM; (ICRF193 200 nM) greater than 45.8 µM.
Consider `CN1CCN(c2c(F)cc3c(=O)c(C(=O)O)cn(CCF)c3c2F)CC1` [Fleroxacin], for which the IC50 cell viability by setting is: (ICRF193 0 nM) greater than 45.8 µM; (ICRF193 200 nM) greater than 45.8 µM.
As for `CC1(C)O[C@@H]2C[C@H]3[C@@H]4C[C@H](F)C5=CC(=O)CC[C@]5(C)[C@H]4[C@@H](O)C[C@]3(C)[C@]2(C(=O)CO)O1` [Flurandrenolide], the IC50 cell viability reads like this: (ICRF193 0 nM) greater than 45.8 µM; (ICRF193 200 nM) greater than 45.8 µM.
With `C[C@@H](O)[C@H]1C(=O)N2C(C(=O)O)=C(SCCNC=N)C[C@H]12` [Imipenem], the IC50 cell viability by setting is: (ICRF193 0 nM) greater than 45.8 µM; (ICRF193 200 nM) greater than 45.8 µM.
Consider `Cc1cccc(C)c1NC(=O)c1cc(S(N)(=O)=O)c(Cl)cc1O` [Xipamide], for which the IC50 cell viability is, setting by setting: (ICRF193 0 nM) greater than 45.8 µM; (ICRF193 200 nM) greater than 45.8 µM.
In the case of `COC(=O)c1cc(Cl)ccc1NS(=O)(=O)C(F)(F)F` [Amidoflumet], the IC50 cell viability was greater than 45.8 µM (ICRF193 0 nM) and greater than 45.8 µM (ICRF193 200 nM).
Turning to `CC(=O)OCC(=O)[C@@]1(O)[C@H](OC(C)=O)C[C@H]2[C@@H]3CCC4=CC(=O)C=C[C@]4(C)[C@@]3(F)[C@@H](O)C[C@@]21C` [Triamcinolone diacetate], the IC50 cell viability was greater than 45.8 µM (ICRF193 0 nM) and greater than 45.8 µM (ICRF193 200 nM).
For `O=C(O)c1cc(=O)[nH]c(=O)[nH]1` [Orotic acid], the IC50 cell viability by setting is: (ICRF193 0 nM) greater than 45.8 µM; (ICRF193 200 nM) greater than 45.8 µM.
Regarding `O=[N+]([O-])c1ccccc1` [Nitrobenzene], the IC50 cell viability is, setting by setting: (ICRF193 0 nM) greater than 45.8 µM; (ICRF193 200 nM) greater than 45.8 µM.
As for `CCCCCCCCCC(=O)OCCN1CCN(CC/C=C2\c3ccccc3Sc3ccc(C(F)(F)F)cc32)CC1` [FLUPENTIXOL DECANOATE], the IC50 cell viability was greater than 45.8 µM (ICRF193 0 nM) and greater than 45.8 µM (ICRF193 200 nM).
On to `C[C@H](CSC(=O)c1ccccc1)C(=O)N1C[C@@H](Sc2ccccc2)C[C@H]1C(=O)O` [Zofenopril], for which the IC50 cell viability reads like this: (ICRF193 0 nM) greater than 45.8 µM; (ICRF193 200 nM) greater than 45.8 µM.
Regarding `CC(C(O)c1ccc(O)cc1)N1CCC(Cc2ccccc2)CC1` (configuration not stated) [Ifenprodil], the IC50 cell viability is greater than 45.8 µM (ICRF193 0 nM) and greater than 45.8 µM (ICRF193 200 nM).
For the compound `CC(=O)O[C@H]1CC[C@H]2[C@@H]3CCC4=CC(=O)CCC4=C3C=C[C@]12C` [Trenbolone (acetate)], the IC50 cell viability was greater than 45.8 µM (ICRF193 0 nM) and greater than 45.8 µM (ICRF193 200 nM).
As for `CC(=O)Nc1ccc(S(=O)(=O)Nc2ccc([N+](=O)[O-])cc2)cc1` [Sulfanitran], the IC50 cell viability by setting is: (ICRF193 0 nM) greater than 45.8 µM; (ICRF193 200 nM) greater than 45.8 µM.
Take `CCN(CC)C(=O)C1(c2ccccc2)CC1CN` (configuration not stated) [Milnacipran hydrochloride]: the IC50 cell viability is greater than 45.8 µM (ICRF193 0 nM) and greater than 45.8 µM (ICRF193 200 nM).
